For the assay, the system named is NL4-3 strain of HIV-1. The experiment in a line: HIV-1 replication inhibition: cyto-protection of MT4 cells infected with NL4-3 virus (CellTiter-Glo viability assay). The format is cell-based. The note with it: Human immunodeficiency virus 1, NL43, 120 h, concentration leading to 50% of cyto-protection, 5 days incubation. On the procedure:
The antiviral activity, particularly against HIV, of compounds according to the invention is evaluated by the protocol described below.
Preparation of Virus Stock of the NL4-3 Strain of HIV-1
The virus was prepared as described in Lopez et al (Lopez et al, Proc Natl Acad Sci USA., 2006, 103(40):14947-52, by transfecting 2×10^6 293 T cells (CRL-1573, ATCC) with following modifications: 6 μg of NL4-3 proviral DNA molecular clone were mixed with Fugene 6 transfection reagent from Roche, and used according to manufacturer's instructions. Forty eight hours later, transfected cell supernatants were harvested, filtered through 0.45-μm-pore-size filters, quantified for HIV-1 p24 antigen by using a Innotest HIV antigen mAb assay (Ingen) according to manufacturer's instructions, and used in infection experiments.
Preparation of Compounds:
Serial dilutions of compounds to be tested were prepared in complete RPMI medium from 10 mM DMSO stock solutions, and distributed in a volume of 20 µl in 96 well Falcon 353072 Microtest™ tissue culture plate, in order to get 0.5% DMSO final concentration in each well, after the addition of infected cells. Control wells contained also 0.5% DMSO final concentration but no compound.
MT4 cells (from the NIH AIDS Research and Reference Reagent Program) in RPMI complete medium were counted (10×10^6 cells per well in Falcon 353047 Multiwell™ 24 well) and infected for 2 hours at 37°, at a multiplicity of infection (moi) of 0.0001-0.00001. Cells were then centrifuged 3 min at 3000 rpm, and washed two times in 1 ml PBS to remove viruses that have not entered in cells. Infected cells were resuspended in complete RPMI at 1.25×10^6 cells/ml, and 80 µl of infected cells were distributed in each well containing compounds to be tested or control wells. The plates were then incubated at 37° for 5 days.
Assay Used to Measure the Inhibition of HIV Replication by the Compounds
(according to Gregg S. Jones et al., Antimicrobial Agents and Chemotherapy, 2009, 53 (3): 1194-1203).
After 5 days of incubation, […] of CellTiter-Glo reagent (Promega Biosciences, Inc., Madison Wis., USA) were added to each well. Cell lysis was carried out at room temperature during 10 min, 150 μl of lysates were transferred in Packard Optiplate 96 well, and luminescence was read on a Fluoroskan (Thermo Scientific).
(In general: In ATP-based viability assays light output follows the ATP content of the culture.)

Usually EC50 stands for the concentration at which the effect is half-maximal. A higher EC50 goes with a less potent agent. As for `Cc1sc(-c2ccccc2)c(-c2ccc3c(c2)CCCO3)c1C(OC(C)(C)C)C(=O)O` (stereo not drawn) [Example 1, 2-(tert-butoxy)-2-[4-(3,4-dihydro-2H-1-benzopyran-6-yl)-2-methyl-5-phenylthiophen-3-yl]acetic acid], the concentration for a half-maximal effect (EC50) worked out at 0.26 µM.

The molecule `Cc1sc(-c2ccc(F)cc2)c(-c2ccc3c(c2)CCCO3)c1C(OC(C)(C)C)C(=O)O` (stereo not drawn) [Example 2, 2-(tert-butoxy)-2-[4-(3,4-dihydro-2H-1-benzopyran-6-yl)-5-(4-fluorophenyl)-2-methylthiophen-3-yl]acetic acid] yielded an EC50 of 0.19 µM.

In the case of `Cc1sc(-c2ccncc2)c(-c2ccc3c(c2)CCCO3)c1C(OC(C)(C)C)C(=O)O` (stereo not drawn) [Example 3, 2-(tert-butoxy)-2-[4-(3,4-dihydro-2H-1-benzopyran-6-yl)-2-methyl-5-(pyridin-4-yl)thiophen-3-yl]acetic acid], the midpoint of the response, the EC50, lay at 0.1 µM.

In the case of `Cc1sc(-c2cnc3c(c2)CCCO3)c(-c2ccc3c(c2)CCCO3)c1C(OC(C)(C)C)C(=O)O` (stereo not drawn) [Example 4, (tert-butoxy)[4-(3,4-dihydro-2H-1-benzopyran-6-yl)-2-methyl-5-{2H,3H,4H-pyrano[2,3-b]pyridin-6-yl}thiophen-3-yl]acetic acid], the EC50 came to 0.18 µM.

`Cc1sc(-c2ccncc2)c(C2=CCC(C)(C)CC2)c1C(OC(C)(C)C)C(=O)O` (stereo not drawn) [Example 5, 2-(tert-butoxy)-2-[4-(4,4-dimethylcyclohex-1-en-1-yl)-2-methyl-5-(pyridin-4-yl)thiophen-3-yl]acetic acid] displayed a concentration for a half-maximal effect (EC50) of 0.041 µM.

The molecule `Cc1sc(-c2ccncc2)c(C2=CCC(C(C)C)CC2)c1C(OC(C)(C)C)C(=O)O` (stereo not drawn) [Example 6, 2-(tert-butoxy)-2-{2-methyl-4-[4-(propan-2-yl)cyclohex-1-en-1-yl]-5-(pyridin-4-yl)thiophen-3-yl}acetic acid] gave an EC50 of 0.16 µM.

Molecule `Cc1sc(-c2cnc3c(c2)CCCO3)c(C2=CCC(C)(C)CC2)c1C(OC(C)(C)C)C(=O)O` (stereo not drawn) [Example 7] had an EC50 of 0.081 µM.

Molecule `Cc1sc(-c2cccnc2)c(-c2ccc3c(c2)CCCO3)c1C(OC(C)(C)C)C(=O)O` (stereo not drawn) [Example 8, 2-(tert-butoxy)-2-[4-(3,4-dihydro-2H-1-benzopyran-6-yl)-2-methyl-5-(pyridin-3-yl)thiophen-3-yl)acetic acid] returned an EC50 of 0.27 µM.

Turning to `Cc1sc(-c2ccncc2)c(C2=CCC(C)CC2)c1C(OC(C)(C)C)C(=O)O` (stereo not drawn) [Example 10, 2-(tert-butoxy)-2-[2-methyl-4-(4-methylcyclohex-1-en-1-yl)-5-(pyridin-4-yl)thiophen-3-yl]acetic acid], the response was half-maximal at 0.14 µM (EC50).

`Cc1sc(-c2ccncc2)c(C2=CCC(C)(C)CC2)c1[C@H](OC(C)(C)C)C(=O)O` [Example 11, (2S)-2-(tert-butoxy)-2-[4-(4,4-dimethylcyclohex-1-en-1-yl)-2-methyl-5-(pyridin-4-yl)thiophen-3-yl]acetic acid] returned an EC50 of 0.032 µM.

For `Cc1sc(-c2ccncc2)c(C2=CCC3(CC2)CC3)c1C(OC(C)(C)C)C(=O)O` (stereo not drawn) [Example 12, 2-(tert-butoxy)-2-[2-methyl-5-(pyridin-4-yl)-4-{spiro[2,5]oct-5-en-6-yl}thiophen-3-yl]acetic acid], the EC50 stood at 0.13 µM.

Take `Cc1sc(-c2ccnc(F)c2)c(-c2ccc3c(c2)CCCO3)c1C(OC(C)(C)C)C(=O)O` (stereo not drawn) [Example 13, 2-(tert-butoxy)-2-[4-(3,4-dihydro-2H-1-benzopyran-6-yl)-5-(2-fluoropyridin-4-yl)-2-methylthiophen-3-yl) acetic acid]: the concentration giving a half-maximal response (EC50) was 0.15 µM.

The molecule `Cc1cc(-c2sc(C)c(C(OC(C)(C)C)C(=O)O)c2-c2ccc3c(c2)CCCO3)ccn1` (stereo not drawn) [Example 14, 2-(tert-butoxy)-2-[4-(3,4-dihydro-2H-1-benzopyran-6-yl)-2-methyl-5-(2-methylpyridin-4-yl)thiophen-3-yl]acetic acid] registered an EC50 of 0.48 µM.

Molecule `Cc1sc(-c2ccnc3ccccc23)c(-c2ccc3c(c2)CCCO3)c1C(OC(C)(C)C)C(=O)O` (stereo not drawn) [Example 15, 2-(tert-butoxy)-2-[4-(3,4-dihydro-2H-1-benzopyran-6-yl)-2-methyl-5-(quinolin-4-yl)thiophen-3-yl]acetic acid] had an EC50 of 0.41 µM.

On to `Cc1sc(-c2ccoc2)c(-c2ccc3c(c2)CCCO3)c1C(OC(C)(C)C)C(=O)O` (stereo not drawn) [Example 16, 2-(tert-butoxy)-2-[4-(3,4-dihydro-2H-1-benzopyran-6-yl)-5-(furan-3-yl)-2-methylthiophen-3-yl]acetic acid], for which the EC50 is 0.82 µM.

In turn, `Cc1sc(-c2ccnc(OCc3ccccc3)c2)c(-c2ccc3c(c2)CCCO3)c1C(OC(C)(C)C)C(=O)O` (stereo not drawn) [Example 17, 2-{5-[2-(benzyloxy)pyridin-4-yl]-4-(3,4-dihydro-2H-1-benzopyran-6-yl)-2-methylthiophen-3-yl}-2-(tert-butoxy)acetic acid] registered an EC50 of 0.65 µM.

Take `Cc1sc(-c2cncnc2)c(-c2ccc3c(c2)CCCO3)c1C(OC(C)(C)C)C(=O)O` (stereo not drawn) [Example 18, 2-(tert-butoxy)-2-[4-(3,4-dihydro-2H-1-benzopyran-6-yl)-2-methyl-5-(pyrimidin-5-yl)thiophen-3-yl]acetic acid]: the EC50 was 0.26 µM.

Regarding `Cc1sc(-c2ccc(=O)n(C)c2)c(-c2ccc3c(c2)CCCO3)c1C(OC(C)(C)C)C(=O)O` (stereo not drawn) [Example 19, 2-(tert-butoxy)-2-[4-(3,4-dihydro-2H-1-benzopyran-6-yl)-2-methyl-5-(1-methyl-6-oxo-1,6-dihydropyridin-3-yl)thiophen-3-yl]acetic acid], the EC50 came out at 0.43 µM.

`Cc1sc(-c2ccsc2)c(-c2ccc3c(c2)CCCO3)c1C(OC(C)(C)C)C(=O)O` (stereo not drawn) [Example 20, 2-(tert-butoxy)-2-[4-(3,4-dihydro-2H-1-benzopyran-6-yl)-2-methyl-5-(thiophen-3-yl)thiophen-3-yl]acetic acid] registered an EC50 of 0.22 µM.

`CC(=O)NCc1ccc(-c2sc(C)c(C(OC(C)(C)C)C(=O)O)c2-c2ccc3c(c2)CCCO3)cc1` (stereo not drawn) [Example 21, 2-(tert-butoxy)-2-[4-(3,4-dihydro-2H-1-benzopyran-6-yl)-5-[4-(acetamidomethyl)phenyl]-2-methylthiophen-3-yl]acetic acid] came in with an EC50 of 0.58 µM.

`Cc1sc(-c2ccc(C(N)=O)cc2)c(-c2ccc3c(c2)CCCO3)c1C(OC(C)(C)C)C(=O)O` (stereo not drawn) [Example 22, 2-(tert-butoxy)-2-[5-(4-carbamoylphenyl)-4-(3,4-dihydro-2H-1-benzopyran-6-yl)-2-methylthiophen-3-yl]acetic acid] came in with an EC50 of 0.3 µM.

As to `Cc1sc(-c2cccs2)c(-c2ccc3c(c2)CCCO3)c1C(OC(C)(C)C)C(=O)O` (stereo not drawn) [Example 23, 2-(tert-butoxy)-2-[4-(3,4-dihydro-2H-1-benzopyran-6-yl)-2-methyl-5-(thiophen-2-yl)thiophen-3-yl]acetic acid], a half-maximal response (EC50) required 0.17 µM.

The molecule `Cc1sc(-c2cnn(C)c2)c(C2=CCC(C)(C)CC2)c1C(OC(C)(C)C)C(=O)O` (stereo not drawn) [Example 24, 2-(tert-butoxy)-2-[4-(4,4-dimethylcyclohex-1-en-1-yl)-2-methyl-5-(N-methylpyrazol-4-yl)thiophen-3-yl]acetic acid] returned an EC50 of 0.31 µM.

The molecule `Cc1sc(-c2cncnc2)c(C2=CCC(C)(C)CC2)c1C(OC(C)(C)C)C(=O)O` (stereo not drawn) [Example 25, 2-(tert-butoxy)-2-[4-(4,4-dimethylcyclohex-1-en-1-yl)-2-methyl-5-(pyrimidin-5-yl)thiophen-3-yl]acetic acid] came in with a concentration for a half-maximal effect (EC50) of 0.19 µM.

For the origin of these results see patent publication US9562033B2, “Inhibitors of viral replication, their process of preparation and their therapeutical uses” (LABORATOIRE BIODIM, priority 2012, dated 2017).
